Measurements as given in patent publication US20220135591A1, “HETEROCYCLIC COMPOUNDS AS INHIBITORS OF MONOACYLGLYCEROL LIPASE (MAGL)” (Hoffmann-La Roche Inc., priority 2019, published 2022).
pIC50: −log10 of the molar value.

Biological target: T1, MAGL (recombinant wild-type) (Homo sapiens, UniProt Q99685)
T1 sequence (Q99685 1-303): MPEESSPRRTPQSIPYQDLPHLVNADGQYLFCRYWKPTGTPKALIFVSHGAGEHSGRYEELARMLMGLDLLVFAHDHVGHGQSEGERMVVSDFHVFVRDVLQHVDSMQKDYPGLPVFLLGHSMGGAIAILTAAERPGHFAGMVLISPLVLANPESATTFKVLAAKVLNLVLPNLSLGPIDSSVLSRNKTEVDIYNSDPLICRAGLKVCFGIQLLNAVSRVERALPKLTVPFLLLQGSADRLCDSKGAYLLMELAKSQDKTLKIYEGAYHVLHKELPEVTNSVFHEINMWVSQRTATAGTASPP
Experiment: 4-NPA assay: MAGL inhibitory activity by hydrolysis of 4-nitrophenylacetate, absorbance at 405 nm
Assay type: biochemical
Conditions: 4-NPA assay (values without footnote [b])
Procedure: Compounds were profiled for MAGL inhibitory activity by measuring the enzymatic activity of MAGL by following the hydrolysis of 4-nitrophenylacetate resulting in 4-nitrophenol, which absorbs at 405-412 nm (G. G. Muccioli, G. Labar, D. M. Lambert, Chem. Bio. Chem. 2008, 9, 2704-2710). This assay is hereinafter abbreviated “4-NPA assay”.
The assay was carried out in 384 well assay plates (black with clear bottom, non-binding surface treated, Corning Ref. 3655) in a total volume of 40 μL. Compound dilutions were made in 100% DMSO (VWR Chemicals 23500.297) in a polypropylene plate in 3-fold dilution steps to give a final concentration range in the assay from 25 μM to 1.7 nM. 1 μL compound dilutions (100% DMSO) were added to 19 μL MAGL (recombinant wild-type) in assay buffer (50 mM TRIS (GIBCO, 15567-027), 1 mM EDTA (Fluka, 03690-100 mL)). The plate was shaked for 1 min at 2000 rpm (Variomag Teleshake) and then incubated for 15 min at RT. To start the reaction, 20 μL 4-Nitrophenlyacetate (Sigma N-8130) in assay buffer with 6% EtOH was added. The final concentrations in the assay were 1 nM MAGL and 300 μM 4-Nitrophenylacetate. After shaking (1 min, 2000 rpm) and 5 min incubation at RT, the absorbance at 405 nm was measured for a first time (Molecular Devices, SpectraMax Paradigm). A second measurement was then done after incubation for 80 min at RT. From the two measurements, the slope was calculated by subtracting the first from the second measurement.

`CC(C)(C)c1nc(-c2ccc(C(=O)N3CCN(c4nc5nccc(Cl)c5o4)CC3)cc2)no1` [Example 8, (4-(5-(tert-butyl)-1,2,4-oxadiazol-3-yl)phenyl)(4-(7-chlorooxazolo[4,5-b]pyridin-2-yl)piperazin-1-yl)methanone] showed a pIC50 of 6.61.

With `CC(C)(C)Cc1nc(-c2ccc(C(=O)N3CCN(c4nc5nccc(Cl)c5o4)CC3)cc2)no1` [Example 9, (4-(7-chlorooxazolo[4,5-b]pyridin-2-yl)piperazin-1-yl)(4-(5-neopentyl-1,2,4-oxadiazol-3-yl)phenyl)methanone] the pIC50 was 7.57.

In the case of `CC(C)(C)Cc1nc(-c2ccc(C(=O)N3CCN(c4nc5nc(Cl)ccc5o4)CC3)cc2)no1` [Example 10, (4-(5-chlorooxazolo[4,5-b]pyridin-2-yl)piperazin-1-yl)(4-(5-neopentyl-1,2,4-oxadiazol-3-yl)phenyl)methanone], the pIC50 was 8.70.

`Cc1ccc2oc(N3CCN(C(=O)c4ccc(-c5noc(C(C)(C)CF)n5)cc4)CC3)nc2n1` [Example 11, (4-(5-(1-fluoro-2-methylpropan-2-yl)-1,2,4-oxadiazol-3-yl)phenyl)(4-(5-methyloxazolo[4,5-b]pyridin-2-yl)piperazin-1-yl)methanone] showed a pIC50 of 7.31.

`CC(C)(C)c1nc(-c2ccc(C(=O)N3CCN(c4nc5nc(Cl)ccc5o4)CC3)cc2)no1` [Example 12, (4-(5-(tert-butyl)-1,2,4-oxadiazol-3-yl)phenyl)(4-(5-chlorooxazolo[4,5-b]pyridin-2-yl)piperazin-1-yl)methanone] gave a pIC50 of 8.10.

`CC(C)(C)Cc1nc(-c2ccc(C(=O)N3CCN(c4nc5ncccc5o4)CC3)cc2)no1` [Example 13, (4-(5-neopentyl-1,2,4-oxadiazol-3-yl)phenyl)(4-(oxazolo[4,5-b]pyridin-2-yl)piperazin-1-yl)methanone] gave a pIC50 of 7.43.

`CC(C)(C)c1nc(-c2ccc(C(=O)N3CCN(c4nc5ncccc5o4)CC3)cc2)no1` [Example 14, (4-(5-(tert-butyl)-1,2,4-oxadiazol-3-yl)phenyl)(4-(oxazolo[4,5-b]pyridin-2-yl)piperazin-1-yl)methanone] gave a pIC50 of 6.89.

In the case of `CCC(CC)c1nc2ccc(C(=O)N3CCN(c4nc5nc(C)ccc5o4)CC3)cc2o1` [Example 15, [2-(1-ethylpropyl)-1,3-benzoxazol-6-yl]-[4-(5-methyloxazolo[4,5-b]pyridin-2-yl)piperazin-1-yl]methanone], the pIC50 was 6.45.

`CC(C)(C)Cc1nnc(-c2ccc(C(=O)N3CCN(c4nc5nc(Cl)ccc5o4)CC3)cc2)o1` [Example 16, [4-(5-chlorooxazolo[4,5-b]pyridin-2-yl)piperazin-1-yl]-[4-[5-(2,2-dimethylpropyl)-1,3,4-oxadiazol-2-yl]phenyl]methanone] gave a pIC50 of 8.00.

In the case of `Cc1ccc2oc(N3CCN(C(=O)c4ccc5nc(C6CCCCC6)oc5c4)CC3)nc2n1` [Example 17, (2-cyclohexyl-1,3-benzoxazol-6-yl)-[4-(5-methyloxazolo[4,5-b]pyridin-2-yl)piperazin-1-yl]methanone], the pIC50 was 7.44.

For `Cc1ccc2oc(N3CCN(C(=O)c4ccc5nc(CCC(F)(F)F)oc5c4)CC3)nc2n1` [Example 18, [4-(5-methyloxazolo[4,5-b]pyridin-2-yl)piperazin-1-yl]-[2-(3,3,3-trifluoropropyl)-1,3-benzoxazol-6-yl]methanone], the pIC50 was 6.36.

For `CC(C)(C)Cn1cc(-c2ccc(C(=O)N3CCN(c4nc5nc(Cl)ccc5o4)CC3)cc2)cn1` [Example 19, [4-(5-chlorooxazolo[4,5-b]pyridin-2-yl)piperazin-1-yl]-[4-[1-(2,2-dimethylpropyl)pyrazol-4-yl]phenyl]methanone], the pIC50 was 8.70.

`CC(C)(CF)c1nc(-c2ccc(C(=O)N3CCN(c4nc5nc(Cl)ccc5o4)CC3)cc2)no1` [Example 20, (4-(5-chlorooxazolo[4,5-b]pyridin-2-yl)piperazin-1-yl)(4-(5-(1-fluoro-2-methylpropan-2-yl)-1,2,4-oxadiazol-3-yl)phenyl)methanone] gave a pIC50 of 7.72.
